From patent publication US20230392124A1, “METHODS AND COMPOSITIONS FOR IMPROVING SC-BETA CELLS OR ENHANCING THEIR UTILITY” (Washington University, priority 2020, published 2023)

Columns and labels:
Type in all cases: cell-based, human
[1] = test system: SC beta cell differentiation; experiment: Other modifications to the differentiation protocol, differentiation markers; conditions: for PDX1/NKX61 co expression: treatment during S4
Description: (§1) Other Modifications with Benefits (See e.g., FIG. 90-FIG. 95). • Y and Blebbistatin treatment during stage 4 of differentiation • Reducing volume of media • Wnt modification—IWP2 treatment during s1d2-d4 • bFGF treatment during stage 1 • Betacellulin removal during S5 • Other compound treatments during Stage 6

[2] = test system: WS4^unedit stage 6 cells; experiment: ER stress study: thapsigargin treatment, static GSIS, real-time PCR and western blot
Protocol: (§2) For static GSIS, approximately 30 stage 6 clusters were placed in transwells (Corning), equilibrated for 1 hr in 2 mM glucose KRB (TABLE 6), and challenged with sequential 1-hr 2 and 20 mM KRB treatments. For dynamic GSIS, clusters were loaded into a cell chamber, perfused with buffer at 100 μL/min, and equilibrated in 2 mM glucose KRB for 90 min. The samples were then challenged for 12 min at 2 mM, 24 min at 20 mM, and 12 min at 2 mM glucose KRB, collecting effluent every 2-4 min. Human insulin was quantified with ELISA and data normalized to cell counts from Vi-Cell XR or DNA quantification using Quant-iT Picogreen dsDNA assay kit (Invitrogen).
(§3) Detection of phosphorylated and total eIF2α as performed by lysing cells in 1% Triton buffer (20 mM HEPES, pH 7.5, 150 mM NaCl, 1% Triton X-100, 10% glycerol (Sigma), 1 mM EDTA, 10 mM tetrasodium pyrophosphate (Sigma), 17.5 mM β-glycerophosphate (Sigma), PhosSTOP (Roche), and complete protease inhibitor cocktail (Roche). Detection of all other proteins was done by lysing cells in M-PER Mammalian Protein Extraction Reagent (Thermo Scientific) supplemented with cOmplete protease inhibitor cocktail. After 30 min incubation on ice, samples were centrifuged, supernatants collected, and protein-equivalent samples were loaded onto 4-20% Mini-PROTEAN TGX Precast Protein Gels (Bio-Rad) and transferred to an Immobilon-P PVDF Membrane (Millipore). The membrane was treated with 5% skimmed milk for 1 hr at RT and probed with the primary antibodies. The antibodies were detected using HRP-linked secondary antibodies. The density of each band was quantified using Image Lab software (Bio-Rad).
(§4) RNA was extracted with the RNeasy Mini Kit (Qiagen) with DNase treatment (Qiagen), cDNA was synthesized with the High Capacity cDNA Reverse Transcriptase Kit (Applied Biosystems using a thermocycler (Applied Biosystems), real-time PCR reactions were generated with PowerUp SYBR Green Master Mix (Applied Biosystems) using a StepOnePlus (Applied Biosystems), and data analyzed using ΔΔCt methodology. TBP and GUSB were used as normalization genes. Primer sequences used can be found in TABLE 8.
(§5) Cells were incubated for 48 hr with 10 μM Thapsigargin (EMD Chemicals), 30 mM glucose, or a cytokine mix including 500 ng/mL IFNγ (R&D Systems), 500 ng/mL TNFα (R&D Systems), and 100 ng/mL […] (R&D Systems).

[3] = test system: WS4^corr stage 6 cells; experiment: as above
Protocol: as §2, §3, §4, §5

[4] = test system: INS-mCherry+ cells; experiment: mCherry/INS reporter cell line, β cell health
Description: Stage 6 INS+/−mcherry SC-islets can be single cell dispersed, sorted for INS+ SC-β cells, and treated with a SERCA pump inhibitor (thapsigargin) to reduce insulin secretion for high throughput drug screening.

[5] = test system: SC-beta cells; experiment: Compound treatments during Stage 6 (s6d1-7), insulin secretion; conditions: treatment during s6d1-7
Description: as §1

[6] = test system: SC-β cells; experiment: Refining stage 6 ESFM: components on top of base media, GSIS stimulation index; conditions: in ESFM, 20 mM; by increasing insulin secretion at low glucose
Protocol: Base Media • MCDB131 • 10% BSA • Glutamax • P/S • Glucose • Zn 10 μM
Treatment on Top of Base Media • 1-Trace A 1:1000 • 2-Trace B 1:1000 • 3-Trace C 1:1000 • 4-Heparin 10 μg/mL • 5-NEAA 1:100 • 6-Vitamin C 250 μM • 7-NaHCO320 mM • 8-Defined Lipid Mixture 1:1000 • 9-Defined Lipid Mixture 1:1000 • 10-Base • 11-S6 w/water dilution 1:100 • 12-S6 no water dilution
All samples had same total dilution of 1:100 with water to maintain same osmolarity amongst samples.

[7] = test system: stem cells in SC-β cell protocol; experiment: Cytoskeletal modulating compounds added for first 24 hours of stages of the SC-β cell protocol, gene expression; conditions: added during stage 1, read at S2d1
Protocol: Small molecules that influence the state of the cytoskeleton were added for first 24 hours of various stages of the SC-β cell protocol.

[8] = test system: Stage 6 SC-Beta cells; experiment: Compounds to improve SC-beta cells: 7 day culture, qPCR of 10 genes; conditions: 1 μg/mL, 6 days, qPCR vs Control 1
Protocol: Cultured 14 wells of 6-well plates containing Stage 6 SC-Beta cells differentiated in suspension by Punn. Two wells served as controls.
Each well was cultured in one of the following for 7 days*: • […] IFN Gamma • […] TNF Alpha • […] IL-1 Beta • Mixture of the above cytokines • 10% FBS • 10, 1, and 0.1 μM A83-01 • 10, 1, and 0.1 μM Alk5i Ill • 1 μg/mL Lefty A (*cultured for 6 days)
Ran qPCR and compared everything to Control 1 (had smallest Ct SD).

[9] = 10 μM Thapsigargin, 48 hr, static GSIS, WS4^corr stage 6 cells

Question: How did the PDX1/NKX61 co expression [1] turn out when Cc1ccc2c(c1)C(=O)C1(O)CCN(c3ccccc3)C1=N2 (stereo not drawn) [Blebbistatin] was run?
Answer: Improves

Question: With C/C=C(/C)C(=O)O[C@H]1C(C)=C2[C@H]([C@@H]1OC(=O)CCCCCCC)[C@@](C)(OC(C)=O)C[C@H](OC(=O)CCC)[C@@]1(O)[C@H]2OC(=O)[C@@]1(C)O [thapsigargin] as the molecule, how does the insulin secretion ([2]; 10 μM Thapsigargin, 48 hr, static GSIS, WS4^unedit stage 6 cells) read?
Answer: not affected

Question: And the known stress markers ([2]; real-time PCR and western blot, bulk stage 6 population, WS4^unedit cells)?
Answer: increasing known stress markers

Question: And the “decrease of insulin secretion” value [3, 9]?
Answer: 3.9±0.7 ×

Question: What about the glucose-responsiveness [3, 9] of the same molecule?
Answer: eliminating glucose-responsiveness

Question: And the known stress markers ([3]; real-time PCR and western blot, bulk stage 6 population, WS4^corr cells)?
Answer: increasing known stress markers

Question: And the De-differentiation signatures [4]?
Answer: De-differentiation signatures occur

Question: What about the “mCherry fluorescence (insulin expression)” value [4] of the same molecule?
Answer: reduces mCherry fluorescence

Question: With “bFGF: growth factor added during stage 1” as the molecule, how does the differentiation ([1]; treatment during Stage 1) read?
Answer: improves differentiation

Question: Which PDX1/NKX61 co expression [1] does the source give for C[C@@H](N)[C@H]1CC[C@H](C(=O)Nc2ccncc2)CC1 [Y] here?
Answer: Improves

Question: Cc1ccc2nc(NC(=O)CSc3nc4c(c(=O)n3-c3ccccc3)SCC4)sc2c1 [IWP2] was tested. Which “PDX1 yield at S3” value ([1]; during Sd2-d4) did it give?
Answer: promotes

Question: Which insulin secretion [5] does the source give for OC[C@H]1OC(O)[C@H](O)[C@@H](O)[C@@H]1O (stereo partly drawn) [High Glucoses] here?
Answer: increases

Question: For C=C1[C@@H](C)[C@H]2[C@H](Cc3ccccc3)NC(=O)[C@]23[C@H](OC(C)=O)/C=C/[C@@](C)(O)C(=O)[C@@H](C)C/C=C/[C@H]3[C@@H]1O [CytoD], which insulin secretion [5] is on record?
Answer: increases

Question: How did the “stimulation index (GSIS)” value [6] turn out when O=C([O-])O.[Na+] [NAHCO3] was run?
Answer: reduces stimulation index

Question: For CCCCCCCCCCCCC/C=C/[C@@H](O)[C@@H](N)COP(=O)(O)O [s1p], which “expression of the mesoderm marker Brachyury T” value [7] is on record?
Answer: greatly increases

B1: Lefty A: factor added to stage 6 culture at 1 μg/mL (protein, UniProt O00292 77-366, looked up)
Left-right determination …: RFSQSFREVAGRFLASEASTHLLVFGMEQRLPPNSELVQAVLRLFQEPVPKAALHRHGRLSPRSAQARVTVEWLRVRDDGSNRTSLIDSRLVSVHESGWKAFDVTEAVNFWQQLSRPRQPLLLQVSVQREHLGPLASGAHKLVRFASQGAPAGLGEPQLELHTLDLRDYGAQGDCDPEAPMTEGTRCCRQEMYIDLQGMKWAKNWVLEPPGFLAYECVGTCQQPPEALAFNWPFLGPRQCIASETASLPMIVSIKEGGRTRPQVVSLPNMRVQKCSCASDGALVPRRLQP
Question: Which results are given for B1?
Answer: NKX6-1 expression [8]: slightly decreased; genes with increased expression (IAPP, SIX2, CHGA, SIX3, G6PC2, MAF B) [8]: 6/10

B2: BC: Betacellulin, stage 5 factor (protein, UniProt P35070 32-111, looked up)
Betacellulin: DGNSTRSPETNGLLCGDPEENCAATTTQSKRKGHFSRCPKQYKHYCIKGRCRFVVAEQTPSCVCDEGYIGARCERVDLFY
modifications: Betacellulin
notes: Betacellulin, stage 5 factor
Question: Which “requirement for Beta cell induction” value ([1]; removal during S5) does the source give for B2 here?
Answer: not required
